This note sets out measurements from ChEMBL document CHEMBL4251578, “Design, synthesis and biological evaluation of novel 2-aminobenzamides containing dithiocarbamate moiety as histone deacetylase inhibitors and potent antitumor agents” (Eur J Med Chem, 2018).

Assay [1] relates to HeLa. Briefly: Antiproliferative activity against human HeLa cells at 8 uM after 72 hrs by CCK-8 assay relative to control. The format is functional. (Formazan colour is commonly taken as a measure of viable cells.)
For a further assay, the system named is NCI-H1299. Briefly: Antiproliferative activity against human NCI-H1299 cells after 72 hrs by CCK-8 assay. It counts as functional, cell-based. To be noted: NCI-H1299, 72 h.
The test system of assay [2] is MGC-803. As to the kind of experiment: Antiproliferative activity against human MGC803 cells at 8 uM after 72 hrs by CCK-8 assay relative to control. To be noted: MGC-803, 72 h. The format is functional.
The test system of assay [3] is A-375. Briefly: Antiproliferative activity against human A375 cells at 8 uM after 72 hrs by CCK-8 assay relative to control. It counts as functional. To be noted: A-375, 72 h.
For assay [4], the system named is MGC-803. Briefly: Antiproliferative activity against human MGC803 cells after 72 hrs by CCK-8 assay. To be noted: MGC-803, 72 h. It counts as functional, cell-based.
The test system of assay [5] is A-375. As to the kind of experiment: Antiproliferative activity against human A375 cells at 2 uM after 72 hrs by CCK-8 assay relative to control. To be noted: A-375, 72 h. It counts as functional.
Assay [6] has as its system HeLa. Briefly: Antiproliferative activity against human HeLa cells at 2 uM after 72 hrs by CCK-8 assay relative to control. It counts as functional.
Assay [7] relates to HeLa. As to the kind of experiment: Antiproliferative activity against human HeLa cells after 72 hrs by CCK-8 assay. It counts as functional, cell-based.
In the next assay the test system is HCT-116. As to the kind of experiment: Antiproliferative activity against human HCT116 cells after 72 hrs by CCK-8 assay. It counts as functional, cell-based. To be noted: HCT-116, 72 h.
Assay [8] deals with SMMC-7721. As to the kind of experiment: Cell cycle arrest in human SMMC7721 cells assessed as accumulation of cells at G0/G1 phase at 0.125 umol/L after 72 hrs by propidium iodide staining-based flow cytometric analysis (reference value: 80.65%). It counts as functional. Background: A flow cytometer gives signals particle by particle.
Assay [9] has as its system MGC-803. Briefly: Antiproliferative activity against human MGC803 cells at 2 uM after 72 hrs by CCK-8 assay relative to control. It counts as functional. To be noted: MGC-803, 72 h.
In assay [10] the test system is SMMC-7721. As to the kind of experiment: Antiproliferative activity against human SMMC7721 cells after 72 hrs by CCK-8 assay. The format is functional, cell-based. To be noted: SMMC-7721, 72 h.
Assay [11] has as its system A-375. Briefly: Antiproliferative activity against human A375 cells after 72 hrs by CCK-8 assay. It counts as functional, cell-based. To be noted: A-375, 72 h.

Take `CC1CCCCN1C(=S)SCc1ccc(C(=O)Nc2ccccc2N)cc1` (stereo not given): the inhibition at 8 µM was 76.3% in the assay with HeLa [1], 86.9% in the assay on MGC-803 [2] and 85.2% with A-375 [3]. The IC50 with NCI-H1299 amounted to 1.3 µM; in the assay on MGC-803 [4] it was 1.61 µM; in the assay on HeLa [7] it was 2.3 µM; in the assay with HCT-116, 1.32 µM; with SMMC-7721 [10], 2.95 µM; in the assay with A-375 [11], 2.61 µM. Besides, the figures for the inhibition at 2 µM in the assay with A-375 [5], in the assay on HeLa [6] and in the assay with MGC-803 [9] were 42.5%, 45.5% and 64.4%, respectively. The Activity result with SMMC-7721 [8] was “Dose-dependent effect”.

As to `COC(=O)c1ccc2c(c1)CCN2C(=S)SCc1ccc(C(=O)Nc2ccccc2N)cc1`, the inhibition at 8 µM with HeLa [1] amounted to 60.1%; with MGC-803 [2], 73.1%; in the assay on A-375 [3], 79.2%. Besides, the IC50 in the assay on NCI-H1299 was 2.02 µM; in the assay with MGC-803 [4], 3.28 µM; in the assay on HeLa [7], 3.58 µM; in the assay on HCT-116 it was 13.2 µM; in the assay on SMMC-7721 [10], above 32 µM; with A-375 [11], 5.88 µM. Moreover, the inhibition at 2 µM in the assay on A-375 [5] is 37.5%; with HeLa [6], 45.3%; in the assay with MGC-803 [9], 37.8%.

The term inhibition denotes the relative decrease from the control value, in per cent. In general, IC50 refers to the midpoint of a concentration-inhibition curve. High values mean weaker potency in that assay, low ones greater potency in that assay.
